Reference: ChEMBL document CHEMBL1139164, “Optimization of halopemide for phospholipase D2 inhibition” (Bioorg Med Chem Lett, 2007)

Assays:
Phospholipase D2 [1] = target: T1, Phospholipase D2 (Homo sapiens, UniProt O14939)
Phospholipase D2 [2] = target: T1, Phospholipase D2; test: Inhibition of PLD2 at 1 uM
[3] = Cmax in rat at 5 mg/kg, po or 1 mg/kg, iv; assay type: ADME, organism-based; conditions: in vivo
[4] = Oral bioavailability in rat at 5 mg/kg; assay type: ADME, organism-based; conditions: in vivo
[5] = Half life in rat at 5 mg/kg, po or 1 mg/kg, iv; assay type: ADME, organism-based; conditions: in vivo
[6] = Clearance in rat at 5 mg/kg, po or 1 mg/kg, iv; assay type: ADME, organism-based; conditions: in vivo
Rattus norvegicus = test: AUC in rat at 5 mg/kg, po or 1 mg/kg, iv; assay type: ADME, organism-based, Plasma; conditions: in vivo

T1 sequence (O14939 whole entry): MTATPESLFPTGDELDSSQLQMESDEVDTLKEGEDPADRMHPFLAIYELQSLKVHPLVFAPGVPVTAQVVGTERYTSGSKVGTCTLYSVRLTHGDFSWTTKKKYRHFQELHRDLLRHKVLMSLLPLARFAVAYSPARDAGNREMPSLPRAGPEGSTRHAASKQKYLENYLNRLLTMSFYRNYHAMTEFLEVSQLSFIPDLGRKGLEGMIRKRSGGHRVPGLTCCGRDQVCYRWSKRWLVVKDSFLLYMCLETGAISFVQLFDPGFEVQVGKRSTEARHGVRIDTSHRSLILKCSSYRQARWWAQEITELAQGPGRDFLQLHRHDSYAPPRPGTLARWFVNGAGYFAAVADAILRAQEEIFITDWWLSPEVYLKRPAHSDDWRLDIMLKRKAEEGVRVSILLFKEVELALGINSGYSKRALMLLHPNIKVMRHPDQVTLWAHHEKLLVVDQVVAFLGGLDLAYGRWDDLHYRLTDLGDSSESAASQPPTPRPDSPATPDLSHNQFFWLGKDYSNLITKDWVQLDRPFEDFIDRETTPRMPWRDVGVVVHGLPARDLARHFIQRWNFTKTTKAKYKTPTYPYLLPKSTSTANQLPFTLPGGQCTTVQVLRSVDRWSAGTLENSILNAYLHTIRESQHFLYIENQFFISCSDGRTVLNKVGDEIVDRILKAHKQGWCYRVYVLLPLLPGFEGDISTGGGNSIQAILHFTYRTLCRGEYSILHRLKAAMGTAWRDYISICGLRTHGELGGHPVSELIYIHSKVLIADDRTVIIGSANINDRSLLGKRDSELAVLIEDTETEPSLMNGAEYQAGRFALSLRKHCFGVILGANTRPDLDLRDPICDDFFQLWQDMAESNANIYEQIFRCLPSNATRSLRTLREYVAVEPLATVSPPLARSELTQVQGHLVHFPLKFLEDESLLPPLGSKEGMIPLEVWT

| IC50 (Phospholipase D2 [1]) [nM] | Compound | inhibition (Phospholipase D2 [2]) [%] | further results |
| --- | --- | --- | --- |
| 1500 | O=C(NCCN1CCC(n2c(=O)[nH]c3ccccc32)CC1)c1ccccc1 | – | – |
| 20 | O=C(NCCN1CCC(n2c(=O)[nH]c3ccccc32)CC1)c1cc2ccccc2[nH]1 | – | – |
| 1410 | O=C(NCCN1CCC(n2c(=O)[nH]c3ccccc32)CC1)c1ccc(F)cc1 | – | – |
| 2000 | O=C(NCCN1CCC(n2c(=O)[nH]c3ccccc32)CC1)c1cc2ccccc2s1 | – | – |
| 20 | O=C(NCCN1CCC(n2c(=O)[nH]c3ccccc32)CC1)c1cc2cc(F)ccc2[nH]1 | – | Cmax [3]: 363 nM; bioavailability [4]: 18.5%; half-life [5]: 5.57 h; clearance [6]: 36.3 mL/min/kg; AUC (Rattus norvegicus): 1.03 uM.hr/L |
| 1000 | O=C(NCCN1CCC(n2c(=O)[nH]c3ccccc32)CC1)c1ccsc1 | – | – |

More lines, now with the values behind:

| Compound | IC50 (Phospholipase D2 [1]) [nM] | inhibition (Phospholipase D2 [2]) [%] | further results |
| --- | --- | --- | --- |
| Cn1c(C(=O)NCCN2CCC(n3c(=O)[nH]c4ccccc43)CC2)cc2ccccc21 | – | 0 | – |
| CC(C)C(=O)NCCN1CCC(n2c(=O)[nH]c3ccccc32)CC1 | – | 0 | – |
| CC(C)CC(=O)NCCN1CCC(n2c(=O)[nH]c3ccccc32)CC1 | – | 0 | – |
| O=C(NCCN1CCC(n2c(=O)[nH]c3ccccc32)CC1)OCc1ccccc1 | – | 0 | – |
| O=C(CCc1ccc(F)cc1)NCCN1CCC(n2c(=O)[nH]c3ccccc32)CC1 | – | 0 | – |
| O=C(Cc1ccc(F)cc1)NCCN1CCC(n2c(=O)[nH]c3ccccc32)CC1 | – | 0 | – |
